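Five compound concentrations were applied to cells in 96-well plates for 48 hours; endpoints were derived by simple linear interpolation of the resulting dose-response curve. TGI is the concentration that stops growth completely.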
Columns and labels:
Test in all cases: NCI-60 cell line screen, 48 h
786-0 renal = system: 786-0 renal
A549 NSCLC = system: A549 NSCLC
CAKI-1 renal = system: CAKI-1 renal
CCRF-CEM leukemia = system: CCRF-CEM leukemia
HCT-116 colon = system: HCT-116 colon
IGROV1 ovarian = system: IGROV1 ovarian
KM12 colon = system: KM12 colon
LOX IMVI melanoma = system: LOX IMVI melanoma
MDA-MB-435 = system: MDA-MB-435
NCI-H226 lung = system: NCI-H226 lung
NCI/ADR-RES ovarian = system: NCI/ADR-RES ovarian
OVCAR-8 ovarian = system: OVCAR-8 ovarian
PC-3 prostate = system: PC-3 prostate
SK-MEL-2 melanoma = system: SK-MEL-2 melanoma
SK-MEL-28 melanoma = system: SK-MEL-28 melanoma
SNB-19 CNS = system: SNB-19 CNS
SNB-75 CNS = system: SNB-75 CNS
SR leukemia = system: SR leukemia
TK-10 renal = system: TK-10 renal
UACC-62 melanoma = system: UACC-62 melanoma

SMILES	TGI (786-0 renal) [µM]	TGI (A549 NSCLC) [µM]	TGI (CAKI-1 renal) [µM]	TGI (CCRF-CEM leukemia) [µM]	TGI (HCT-116 colon) [µM]	TGI (IGROV1 ovarian) [µM]	TGI (KM12 colon) [µM]	TGI (LOX IMVI melanoma) [µM]	TGI (MDA-MB-435) [µM]	TGI (NCI-H226 lung) [µM]	TGI (NCI/ADR-RES ovarian) [µM]	TGI (OVCAR-8 ovarian) [µM]	TGI (PC-3 prostate) [µM]	TGI (SK-MEL-2 melanoma) [µM]	TGI (SK-MEL-28 melanoma) [µM]	TGI (SNB-19 CNS) [µM]	TGI (SNB-75 CNS) [µM]	TGI (SR leukemia) [µM]	TGI (TK-10 renal) [µM]	TGI (UACC-62 melanoma) [µM]
Cc1ccc([N+](=O)[O-])cc1S(=O)(=O)Nc1ccc(C2=NOC(c3ccco3)C2)cc1 (stereo not drawn)	34.9	59.7	70.4	> 100	31.9	84.4	24.7	40.2	11.8	39.6	52.6	> 100	40.5	33.8	43.5	37.9	35.7	23.8	> 100	27.1
CN1CCc2c3n(c4cc(Br)ccc24)[C@H](O)CCCC31 (stereo partly drawn)	3.08	> 10	> 7.17	3.74	3.07	> 10	5.32	3.29	3.27	> 10	> 10	3.43	> 10	1.7	3.19	> 10	5.83	4.05	> 10	
CC(=O)OC/C=C/[C@H](O[Si](C)(C)C(C)(C)C)[C@@H](O)/C=C/COC(C)=O	> 100	> 100	> 100	52	> 100	> 100	> 100	> 100	> 100	> 100	> 100	> 100	> 100	> 100	> 100	> 100	> 100	86.2	> 100	> 100
O=[N+]([O-])C(=C(Nc1ccccc1)Nc1ccccc1)/C(Cl)=C(\Cl)[N+](=O)[O-]	15	35.6	3.18	92.5	10.7		14.8	11.4	10.5	34.5	38.5	2.77	20.9	31.8	16.3	26.8	22.4	> 100	16.9	18.7
CC[C@@]1(O)C(=O)OCc2c1cc1n(c2=O)Cc2c-1nc1ccccc1c2/C=N\NC(=O)C(N)CO (stereo partly drawn)	13	> 100	> 27.2	> 19.7	22.8	> 100	> 44	6.15	> 31.6	23.2	9.2	39.6	> 100	> 100	> 100	> 100	0.312	3.59	> 100	0.419
COc1cc(C2=C(c3cc(OC)c4ccccc4c3OC)C(=O)c3ccccc3C2=O)c(OC)c2ccccc12	> 100	> 100	> 100	> 100	> 100	> 100	> 100	> 100	> 100	> 100	> 100	> 100	> 100	> 100	> 100	> 100	> 100	> 100	> 100	> 100

Reference: PubChem BioAssay (NCI)
